Experimental data from patent US20260207654A1, “HEPARAN SULFATE AND ITS MIMETICS AS CHEMOKINE INHIBITORS” (INDIAN INSTITUTE OF SCIENCE EDUCATION AND RESEARCH, priority 2021, published 2026).

What was measured:
Assay in all cases: Chemokine glycan microarray binding assay
Conditions in all cases: maximum RFU set as 100% binding, average across 2 glycan concentrations and 3 chemokine dilutions (n=6)
CCL21 = target: T1, CCL21 (Homo sapiens, UniProt O00585)
T1 sequence (O00585 24-134): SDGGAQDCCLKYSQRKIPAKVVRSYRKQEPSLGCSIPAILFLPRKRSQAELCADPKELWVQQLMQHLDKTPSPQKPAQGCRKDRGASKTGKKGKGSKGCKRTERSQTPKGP
Procedure: (§1) Microarray Studies: The compounds of the present invention were covalently immobilized on epoxy group collated glass slides. Slides were rehydrated with dH2O and incubated for 30 min in a staining dish with 50° C. prewarmed ethanolamine (0.05 M) in Tris-HCl (0.1 M, pH 9.0) to block the remaining reactive epoxy groups on the slide surface, then washed with 50° C. prewarmed dH2O. Slides were centrifuged at 200 g for 3 min, then fitted with the ProPlate Multi-Array 16-well slide module (Grace Bio-lab P37001) to divide into the subarrays (blocks). Slides were washed with PBST (0.1% Tween 20), aspirated, and blocked with 200 μL/subarray of blocking buffer (PBS pH 7.3+1% w/v ovalbumin) for 1 h at RT with gentle shaking. Next, the blocking solution was aspirated and 100 μL/block of primary chemokines diluted in PBS pH 7.3+1% w/v ovalbumin were incubated with gentle shaking for 2 hours at RT. Slides were washed 4 times with PBST, then with PBS (without Tween-20) for 2 min. Bound antibodies were detected by incubating with biotinylated secondary detections (1 ng/μL) diluted in PBS, 200 μL/block at RT for 1 h. Slides were washed 4 times with PBST, then with PBS (without Tween-20) for 2 min and biotinylated antibodies were detected with Cy3-SA ([…]). Slides were washed 4 times with PBST, then with PBS for 10 min followed by removal from the ProPlate Multi-Array slide module and immediately dipping in a staining dish with dH2O for 10 min with shaking. The slides were then centrifuged at 200 g for 3 min, and the dry slides immediately scanned. Binding was tested at three serial dilutions, then detected with the relevant biotinylated secondary antibody (1 μg/mL) followed by Cy3-strepavidin (1.5 μg/mL). Arrays were scanned and RFUs were calculated of chemokines binding to 100 μM glycans printed at four replicates. Rank binding of chemokines (each at three dilutions) to glycans printed at four replicates each was calculated and summarized in Table 1. For each binding assay per printed block, the maximum RFU was determined and set as 100% binding. Then, binding to all other glycans in the same block was ranked in comparison to the maximal binding, and average rank binding (and SEM) for each glycan across the three examined concentrations of each chemokine was calculated. This analysis allowed to compare the glycan-binding profiles of the different chemokines and dissect their binding preferences.
(§2) Table 1. Chemokine glycan microarray binding assay. Binding was tested at 3 serial dilutions, then detected with the relevant biotinylated secondary antibody (1 μg/ml) followed by Cy3-Strepavidin (1.5 μg/ml) (Table SX). Arrays were scanned, relative fluorescent units (RFU) obtained, and maximum RFU determined and set as 100% binding. Then rank binding (per printed glycan per concentration, per each chemokine dilution, per printed block) was determined. Since each glycans was printed at 2 concentration, 100% binding was set separately for each concentration. Then, binding to all the other glycans at the same concentration was ranked in comparison to the maximal binding, and the average rank binding and SEM for each glycan across the two glycan concentrations and three examined dilutions of each chemokine was calculated (n=6, 2 glycan concentrations across 3 chemokine dilutions). This analysis allowed to compare the glycan binding profiles of the different chemokines and dissect their binding preferences. The mean rank is shown as a heatmap of all the examined binding assays together (red highest, blue lowest and white 50th percentile of ranking).

CCL2 = CCL2 (Homo sapiens, UniProt P13500)
CCL2, sequence (P13500 24-99, species assumed): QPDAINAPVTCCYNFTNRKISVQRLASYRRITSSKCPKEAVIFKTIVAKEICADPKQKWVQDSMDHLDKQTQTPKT
Procedure: as §1, §2

CCL5 = target: T2, CCL5 (Homo sapiens, UniProt P13501)
T2 sequence (P13501 24-91): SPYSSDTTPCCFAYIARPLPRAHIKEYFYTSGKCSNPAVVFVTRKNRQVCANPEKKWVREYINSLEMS
Procedure: as §1, §2

CXCL8 = target: T3, CXCL8 (Homo sapiens, UniProt P10145)
T3 sequence (P10145 21-99): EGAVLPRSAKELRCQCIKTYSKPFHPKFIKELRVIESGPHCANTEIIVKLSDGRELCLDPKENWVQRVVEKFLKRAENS
Procedure: as §1, §2

CCL28 = target: T4, CCL28 (Homo sapiens, UniProt Q9NRJ3)
T4 sequence (Q9NRJ3 20-127): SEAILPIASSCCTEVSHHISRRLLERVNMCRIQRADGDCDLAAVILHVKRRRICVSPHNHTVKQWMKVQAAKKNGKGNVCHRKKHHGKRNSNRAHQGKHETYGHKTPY
Procedure: as §1, §2

CXCL12 = CXCL12 (Homo sapiens, UniProt P48061)
CXCL12, sequence (P48061 22-93, species assumed): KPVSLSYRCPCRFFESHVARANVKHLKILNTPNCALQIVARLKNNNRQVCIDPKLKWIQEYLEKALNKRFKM
Procedure: as §1, §2

CCL7 = CCL7 (Homo sapiens, UniProt P80098)
CCL7, sequence (P80098 24-99, species assumed): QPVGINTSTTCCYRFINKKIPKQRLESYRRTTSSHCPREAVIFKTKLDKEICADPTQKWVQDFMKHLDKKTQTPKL
Procedure: as §1, §2

CCL13 = CCL13 (Homo sapiens, UniProt Q99616)
CCL13, sequence (Q99616 17-98, species assumed): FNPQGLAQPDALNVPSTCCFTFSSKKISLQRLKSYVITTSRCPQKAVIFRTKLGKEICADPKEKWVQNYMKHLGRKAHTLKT
Procedure: as §1, §2

CXCL10 = target: T5, CXCL10 (Homo sapiens, UniProt P02778)
T5 sequence (P02778 22-98): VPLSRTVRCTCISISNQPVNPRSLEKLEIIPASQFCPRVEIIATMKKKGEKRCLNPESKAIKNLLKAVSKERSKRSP
Procedure: as §1, §2

Row | mean rank binding to CCL21 (CCL21) [%] | mean rank binding to CCL2 (CCL2) [%] | mean rank binding to CCL5 (CCL5) [%] | mean rank binding to CXCL8 (CXCL8) [%] | mean rank binding to CCL28 (CCL28) [%] | mean rank binding to CXCL12 (CXCL12) [%] | mean rank binding to CCL7 (CCL7) [%] | mean rank binding to CCL13 (CCL13) [%] | mean rank binding to CXCL10 (CXCL10) [%] | Structure (SMILES)
1 | 78 | 2 | 14 | 29 | 78 | 59 | 56 | 87 | 55 | CC(=O)N[C@H]1[C@@H](O[C@H]2[C@H](O)[C@@H](OP(=O)(O)O)[C@H](OCCCN)O[C@H]2C(=O)O)O[C@H](COP(=O)(O)O)[C@@H](O[C@@H]2O[C@@H](C(=O)O)[C@@H](O[C@H]3O[C@H](COP(=O)(O)O)[C@@H](O)[C@H](O)[C@H]3NC(C)=O)[C@H](O)[C@H]2OP(=O)(O)O)[C@@H]1O [Example 21, 3-Aminopropyl-O-[(2-acetamido-6-O-phosphonato-2-deoxy-α-D-glucopyranosyl)-(1→4)-O-(2-O-phosphonato-α-L-idopyranosyluronate)-(1→4)-O-(2-acetamido-6-O-phosphonato-2-deoxy-α-D-glucopyranosyl)]-(1→4)-O-2-O-phosphonato-α-L-idopyranosiduronate]
2 | 81 | 1 | 5 | 10 | 39 | 75 | 40 | 70 | 48 | CC(=O)N[C@H]1[C@@H](O[C@H]2[C@H](O)[C@@H](O)[C@H](OCCCN)O[C@H]2C(=O)O)O[C@H](COP(=O)(O)O)[C@@H](O[C@@H]2O[C@@H](C(=O)O)[C@@H](O[C@H]3O[C@H](COP(=O)(O)O)[C@@H](O)[C@H](O)[C@H]3NC(C)=O)[C@H](O)[C@H]2O)[C@@H]1O [Example 26]

Continued, compound first:

Row | Structure (SMILES) | mean rank binding to CCL21 (CCL21) [%] | mean rank binding to CCL2 (CCL2) [%] | mean rank binding to CCL5 (CCL5) [%] | mean rank binding to CXCL8 (CXCL8) [%] | mean rank binding to CCL28 (CCL28) [%] | mean rank binding to CXCL12 (CXCL12) [%] | mean rank binding to CCL7 (CCL7) [%] | mean rank binding to CCL13 (CCL13) [%] | mean rank binding to CXCL10 (CXCL10) [%]
3 | NCCCO[C@@H]1O[C@@H](C(=O)O)[C@@H](O[C@H]2O[C@H](CO)[C@@H](O[C@@H]3O[C@@H](C(=O)O)[C@@H](O[C@H]4O[C@H](CO)[C@@H](O)[C@H](OS(=O)(=O)O)[C@H]4N)[C@H](O)[C@H]3O)[C@H](OS(=O)(=O)O)[C@H]2N)[C@H](O)[C@H]1O [Example 22, 3-Aminopropyl-O-[(2-amino-3-O-sulfonato-2-deoxy-α-D-glucopyranosyl)-(1→4)-O-(α-L-idopyranosyluronate)-(1→4)-O-(2-amino-3-O-sulfonato-2-deoxy-α-D-glucopyranosyl)]-(1→4)-O-α-L-idopyranosiduronate] | 83 | 28 | 20 | 51 | 62 | 84 | 78 | 58 | 65
4 | NCCCO[C@@H]1OC(C(=O)O)[C@@H](O[C@H]2OC(COS(=O)(=O)O)[C@@H](O[C@@H]3OC(C(=O)O)[C@@H](O[C@H]4OC(COS(=O)(=O)O)[C@@H](O)[C@H](O)C4N)C(O)[C@@H]3O)[C@H](O)C2N)C(O)[C@@H]1O (stereo partly drawn) [Example 23, 3-Aminopropyl-O-[(2-amino-6-O-sulfonato-2-deoxy-α-D-glucopyranosyl)-(1→4)-O-(α-L-idopyranosyluronate)-(1→4)-O-(2-amino-6-O-sulfonato-2-deoxy-α-D-glucopyranosyl)]-(1→4)-O-α-L-idopyranosiduronate] | 25 | 1 | 3 | 5 | 38 | 25 | 11 | 45 | 15
5 | CC(=O)NC1C(O)[C@H](O)C(COS(=O)(=O)O)O[C@@H]1O[C@@H]1C(C(=O)O)O[C@@H](O[C@@H]2C(COS(=O)(=O)O)O[C@H](O[C@@H]3C(C(=O)O)O[C@@H](OCCCN)C(O)C3O)C(NC(C)=O)C2O)C(O)C1O (stereo partly drawn) [Example 24, 3-Aminopropyl-O-[(2-acetamido-6-O-sulfonato-2-deoxy-α-D-glucopyranosyl)-(1→4)-O-(α-L-idopyranosyluronate)-(1→4)-O-(2-acetamido-6-O-sulfonato-2-deoxy-α-D-glucopyranosyl)]-(1→4)-O-α-L-idopyranosiduronate] | 79 | 13 | 24 | 19 | 79 | 66 | 73 | 81 | 41
